{"source": "patent US8722665B2", "about": "“Cinnamido-pyrrolo[2,1-C][1,4]benzodiazepines as potential anticancer agents and process for the preparation thereof” (Council of Scientific & Industrial Research, priority 2008, dated 2014)", "system": "duplex-form calf thymus DNA (CT-DNA)", "test": "Thermal denaturation studies with calf thymus DNA", "format": "binding", "conditions": "[PBD]:[DNA] molar ratio 1:5, CT-DNA 100 μM, ligand 20 μM, pH 7.00; for (ΔTm ° C.) after incubation at 37° C. for 0 h: 0 h incubation at 37° C.; for (ΔTm ° C.) after incubation at 37° C. for 18 h: 18 h incubation at 37° C.", "procedure": "Compounds have been subjected to thermal denaturation studies with duplex-form calf thymus DNA (CT-DNA) using an modification of a reported procedure (Newman, M. S. Carcinog-compr. Surv. 1976, 1, 203; (b) Hecht, S. S.; Loy, M.; Hoffman, Carcinog-compr. Surv. 1976, 1, 325). Working solutions in aqueous buffer (10 mM NaH2PO4/Na2HPO4, 1 mM Na2EDTA, pH 7.00+0.01) containing CT-DNA (100 μm in phosphate) and the PBD (20 μm) have been prepared by addition of concentrated PBD solutions in DMSO to obtain a fixed [PBD]/[DNA] molar ratio of 1:5. The DNA-PBD solutions have been incubated at 37° C. for 0 and 18 h prior to analysis. Samples have been monitored at 260 nm using a Beckman DU-800 spectrophotometer fitted with high performance temperature controller, and heated at 1° C. min^−1 in the 40-110° C. range. DNA helix→coil transition temperatures (Tm) have been obtained from the maxima in the d(A260)/dT derivative plots. Drug-induced alterations in DNA melting behavior are given by: ΔTm=Tm(DNA+PBD)−Tm(DNA alone), where the Tm value for the PBD-free CT-DNA is 69.1±0.01.\nThe DNA binding activity for these Cinnamido-pyrrolo[2,1-c][1,4]benzodiazepines have been examined by thermal denaturation studies using calf thymus (CT) DNA. […] The data for the compounds 8b&d, 11b&d, 14b&d and 17b&d is included in Table 1 for comparison."}
{"molecule": "1,1′-{[(E-3-bis propoxy-3-methoxy phenyl)-1-4-piperzino]-2-propene-1-one}dioxy}bis(11aS)-7-methoxy-1,2,3,11a-tetrahydro-5H-pyrrolo[2,1-c][1,4]benzo diazepine-5-one [17b]", "values": [{"measurement": "(ΔTm ° C.) after incubation at 37° C. for 0 h", "result": 4.0, "unit": "°C"}, {"measurement": "(ΔTm ° C.) after incubation at 37° C. for 18 h", "result": 5.1, "unit": "°C"}]}
{"molecule": "COc1cc(/C=C/C(=O)N2CCOCC2)ccc1OCCCCCOc1cc2c(cc1OC)C(=O)N1CCC[C@H]1C=N2", "note": "[14d, 7-methoxy-8-(5-2-methoxy-4-[(E)-3-morpholino-3-oxo-1-propenylphenoxy]pentyloxy)-(11aS)-2,3,5,11^a-tetrahydro-5H-pyrrolo[2,1-c][1,4]benzodiazepine-5-one]", "values": [{"measurement": "(ΔTm ° C.) after incubation at 37° C. for 0 h", "result": 7.1, "unit": "°C"}, {"measurement": "(ΔTm ° C.) after incubation at 37° C. for 18 h", "result": 8.2, "unit": "°C"}]}
{"molecule": "COc1cc(/C=C/C(=O)N2CCOCC2)ccc1OCCCOc1cc2c(cc1OC)C(=O)N1CCC[C@H]1C=N2", "note": "[14b, 7-methoxy-8-(3-2-methoxy-4-[(E)-3-morpholino-3-oxo-1-propenylphenoxy]propoxy)-(11aS)-2,3,5,11^a-tetrahydro-5H-pyrrolo[2,1-c][1,4]benzodiazepine-5-one]", "values": [{"measurement": "(ΔTm ° C.) after incubation at 37° C. for 0 h", "result": 3.0, "unit": "°C"}, {"measurement": "(ΔTm ° C.) after incubation at 37° C. for 18 h", "result": 4.2, "unit": "°C"}]}
{"molecule": "1,1′-{[(E-3-bis pentyloxy-3-methoxy phenyl)-1-4-piperzino]-2-propene-1-one]dioxy}bis(11aS)-7-methoxy-1,2,3,11a-tetrahydro-5H-pyrrolo[2,1-c][1,4]benzo diazepine-5-one [17d]", "values": [{"measurement": "(ΔTm ° C.) after incubation at 37° C. for 0 h", "result": 8.1, "unit": "°C"}, {"measurement": "(ΔTm ° C.) after incubation at 37° C. for 18 h", "result": 9.2, "unit": "°C"}]}
{"molecule": "COc1cc(/C=C/C(=O)N2CCN(C)CC2)ccc1OCCCCCOc1cc2c(cc1OC)C(=O)N1CCC[C@H]1C=N2", "note": "[11d, 7-methoxy-8-(5-2-methoxy-4-[(E)-3-(4-methylpiperazino)-3-oxo-1-propenyl-phenoxy]pentyloxy)-(11aS)-2,3,5,11^a-tetrahydro-5H-pyrrolo[2,1-c][1,4]benzodiazepine-5-one]", "values": [{"measurement": "(ΔTm ° C.) after incubation at 37° C. for 0 h", "result": 7.9, "unit": "°C"}, {"measurement": "(ΔTm ° C.) after incubation at 37° C. for 18 h", "result": 8.8, "unit": "°C"}]}
{"molecule": "COc1cc(/C=C/C(=O)N2CCN(C(=O)c3cc(OC)c(OC)c(OC)c3)CC2)ccc1OCCCCCOc1cc2c(cc1OC)C(=O)N1CCC[C@H]1C=N2", "note": "[8d, 7-methoxy-8-{5-(2-methoxy-4-(E)-3-oxo-3-[4-(3,4,5-trimethoxybenzoyl)piperazino]-1-propenylphenoxy)pentyloxy}-(11aS)-2,3,5,11^a-tetrahydro-5H-pyrrolo[2,1-c][1,4]benzo-diazepine-5-one]", "values": [{"measurement": "(ΔTm ° C.) after incubation at 37° C. for 0 h", "result": 1.5, "unit": "°C"}, {"measurement": "(ΔTm ° C.) after incubation at 37° C. for 18 h", "result": 2.5, "unit": "°C"}]}
{"molecule": "COc1cc(/C=C/C(=O)N2CCN(C)CC2)ccc1OCCCOc1cc2c(cc1OC)C(=O)N1CCC[C@H]1C=N2", "note": "[11b, 7-methoxy-8-(3-2-methoxy-4-[(E)-3-(4-methylpiperazino)-3-oxo-1-propenyl-phenoxy]propoxy)-(11aS)-2,3,5,11^a-tetrahydro-5H-pyrrolo[2,1-c][1,4]benzodiazepine-5-one]", "values": [{"measurement": "(ΔTm ° C.) after incubation at 37° C. for 0 h", "result": 4.0, "unit": "°C"}, {"measurement": "(ΔTm ° C.) after incubation at 37° C. for 18 h", "result": 5.0, "unit": "°C"}]}
{"molecule": "COc1cc2c(cc1O)N=CC1CCCN1C2=O", "note": "(stereo not shown) [DC-81, reference compound]", "values": [{"measurement": "(ΔTm ° C.) after incubation at 37° C. for 0 h", "result": 0.3, "unit": "°C"}, {"measurement": "(ΔTm ° C.) after incubation at 37° C. for 18 h", "result": 0.7, "unit": "°C"}]}
